In patent US6169076A, “P-Boronophenylalanine complexes with fructose and related carbohydrates and polyols” (Glcosyn Pharmaceuticals, Inc., priority 1999, dated 2001):
Converted amounts (≈) assume the structure as drawn. Structures can show the parent of a compound that is named as a salt. Blank lines part the entries; values can stand above or below the compound they belong to.

Assays:
[1] = Complex formation constants of p-BPA with carbohydrates and polyols, by integration of aryl protons in the 1H NMR spectrum (D2O, pH buffered at 7.4); type: physicochemical; conditions: for log Keq (complex formation constant, disaccharides) / log Keq (complex formation constant, monosaccharides) / log Keq (complex formation constant, polyols): L-p-BPA, 1H NMR, D2O, pH buffered at 7.4; for difference in binding constants: maltulose, lactulose and fructose compared; for decrease in binding: C-3 hydroxyl unavailable; for decrease in the pKeq values of these complexes: C-6 hydroxyl eliminated from binding, relative to fructose; for binding with l-p-BPA / change in the 1H NMR spectrum of l-p-BPA: in words
Source text: (§1) The ratio of free p-BPA to p-BPA:carbohydrate complex can be determined by integration of the aromatic protons resonances (p-BPA, 7.73 and 7.33 ppm; p-BPA-carbohydrate complex, 7.5 and 7.2 ppm) in the ^1 H NMR spectrum using D2 O buffered to physiological pH as the solvent. A minimum of five measurements for each carbohydrate at various concentrations and p-BPA:carbohydrate ratios were taken, and the equilibrium constant calculated (Table 1 and Table 2). Likewise, complex formation constants for p-BPA and some polyols have been calculated (Table 3).
^a All values were determined for L-p-BPA by integration of aryl
protons in the ^j H NMR spectrum (D2 O, pH buffered at 7.4).
^a All values were determined for L-p-BPA by intergration of aryl
protons in the ^l H NMR spectrum (D2 O, pH buffered at 7.4).
The strong correspondence between the NMR data obtained for the l-p-BPA-fructose complex at physiological pH and one of the complexes (e.g., as observed for p-tolylboronic acid with fructose at pD 11-12) was further investigated by a systematic study of the binding ability of fructose-containing disaccharides (Table 2). […] However, the presence of the added 4-O-glucosyl or galactosyl group had no positive effect on binding either.
While the hydroxyl at C-3 for turanose is eliminated from binding due to the presence of the glucosyl moiety, the C-3 hydroxyl of leucrose is also unavailable for binding due to a likely significant contribution from the conformation that places the glucosyl unit in an equatorial position, resulting in a diaxial orientation between the anomeric C-2 hydroxyl and C-3 hydroxyl axial. Loss in binding ability for leucrose can also be attributed to the fructose unit being locked in the less favored pyranose ring form.

[2] = patients injected with p-BPA solution of this acidity; cited from earlier work
[3] = 0.1 M solution; cited from earlier work
[4] = State of p-BPA in solution at pH 7.4 with strongly complexing or excess carbohydrate/polyol; type: physicochemical
Source text: as §1

[5] = cited from earlier work
melanoma cells = conditions: in words; cited from earlier work
murine melanoma model = conditions: systemic administration; cited from earlier work
[6] = solution from current methods, roughly one equivalent of NaCl; cited from earlier work
[7] = intravenous; solution from current methods; cited from earlier work
[8] = Hydration of the freeze-dried solid with warm water and standing at room temperature; type: physicochemical
Procedure: ^10 B enriched l-p-boronophenylalanine (0.520 g) and d-fructose (0.473 g) was suspended in distilled water (3 mL), and l-p-boronophenylalanine was dissolved by addition of 0.5 M NaOH (5.3 mL) with gentle heating. The pH of this solution is typically between 8.5 and 9.0. […] The solution is removed from the resin, and any l-p-boronophenylalanine that is suspended can be redissolved with gentle warming of the solution. The room temperature solution was then filtered through a 0.2μ filter and then freeze-dried to give sodium l-p-boronophenylalanine-d-fructose complex (0.934 g). […] M.p. 90-93° C.

log Keq (complex formation constant, disaccharides) [1]: 3.0
Compound: OC[C@H]1O[C@@H](O[C@@H]2[C@@H](CO)OC(O)(CO)[C@H]2O)[C@H](O)[C@@H](O)[C@H]1O (mixture of isomers) [Lactulose]
difference in binding constants [1]: lack of appreciable difference in binding constants

log Keq (complex formation constant, monosaccharides) [1]: < 0
Compound: O=CC[C@@H](O)[C@H](O)[C@H](O)CO [2-Deoxyglucose]

log Keq (complex formation constant, polyols) [1]: 1.7
Compound: OC[C@@H](O)[C@@H](O)[C@@H](O)CO [Adonitol]

log Keq (complex formation constant, monosaccharides) [1]: 3.2
Compound: O=C(CO)[C@@H](O)[C@H](O)[C@H](O)CO [Fructose]
difference in binding constants [1]: lack of appreciable difference in binding constants

log Keq (complex formation constant, monosaccharides) [1]: 1.6
Compound: O=C[C@H](O)[C@@H](O)[C@@H](O)[C@H](O)CO [Galactose]

log Keq (complex formation constant, monosaccharides) [1]: 1.4
Compound: O=C[C@H](O)[C@@H](O)[C@H](O)[C@H](O)CO [Glucose]

decrease in binding [1]: 1.5 pKeq | log Keq (complex formation constant, disaccharides) [1]: 1.7
Compound: OC[C@H]1O[C@H](O[C@@H]2COC(O)(CO)[C@@H](O)[C@@H]2O)[C@H](O)[C@@H](O)[C@@H]1O (some centres unmarked) [Leucrose]

Compound: OC[C@@H](O)[C@@H](O)[C@H](O)[C@H](O)CO [Mannitol]
log Keq (complex formation constant, polyols) [1]: 2.7

log Keq (complex formation constant, monosaccharides) [1]: 1.3
Compound: O=C[C@@H](O)[C@@H](O)[C@H](O)[C@H](O)CO [Mannose]

decrease in the pKeq values of these complexes [1]: 0.5 pKeq | log Keq (complex formation constant, disaccharides) [1]: 2.6
Compound: OC[C@H]1O[C@H](OC[C@H]2OC(O)(CO)[C@@H](O)[C@@H]2O)[C@H](O)[C@@H](O)[C@@H]1O (some centres unmarked) [Palatinose]

log Keq (complex formation constant, monosaccharides) [1]: 1.8
Compound: O=C[C@H](O)[C@H](O)[C@H](O)CO [Ribose]

Compound: OC[C@@H](O)[C@@H](O)[C@H](O)[C@@H](O)CO [Sorbitol]
log Keq (complex formation constant, polyols) [1]: 3.2

decrease in the pKeq values of these complexes [1]: 0.5 pKeq | log Keq (complex formation constant, monosaccharides) [1]: 2.7
Compound: O=C(CO)[C@H](O)[C@@H](O)[C@H](O)CO [Sorbose]

decrease in binding [1]: 1.5 pKeq | log Keq (complex formation constant, disaccharides) [1]: 1.6
Compound: O=C(CO)[C@@H](O[C@H]1O[C@H](CO)[C@@H](O)[C@H](O)[C@H]1O)[C@H](O)[C@H](O)CO [Turanose]

log Keq (complex formation constant, polyols) [1]: 2.5
Compound: OC[C@@H](O)[C@H](O)[C@@H](O)CO [Xylitol]

Compound: NC(Cc1ccc(B(O)O)cc1)C(=O)O (centres unmarked) [hydrochloric acid salts of p-BPA]
pain on injection [2]: causes pain | pH value of solution [3]: approximately 1.5

binding with l-p-BPA [1]: complete lack of binding | change in the 1H NMR spectrum of l-p-BPA [1]: no change
Compound: CO[C@H]1O[C@H](CO)[C@@H](O)[C@H](O)[C@H]1O [methyl-α-glucopyranoside]

binding with l-p-BPA [1]: complete lack of binding | change in the 1H NMR spectrum of l-p-BPA [1]: no change
Compound: CO[C@@H]1O[C@H](CO)[C@H](O)[C@H](O)[C@H]1O [methyl-β-galactopyranoside]

p-BPA remaining in solution ([4]; fructose, sorbose, or large excess of another carbohydrate or polyol): all of the p-BPA remains in solution | p-BPA present as its sodium carboxylate ([4]; remainder as free acid): approximately 90%
Compound: N[C@@H](Cc1ccc(B(O)O)cc1)C(=O)O [p-BPA, p-Boronophenylalanine]
water solubility at physiological pH ([5]; pH 7.4, in words): poor water solubility | solubility in water ([5]; water): 1.6 g/L (≈ 7.66 mM) | uptake by melanoma cells (melanoma cells): selectively taken up by melanoma cells

Compound: [NH3+]C(Cc1ccc([B-]23OC[C@H]4O[C@@](CO)(O2)[C@@H](O3)[C@@H]4O)cc1)C(=O)O (some centres unmarked) [p-BPA-fructose complex]
10B uptake (murine melanoma model): increases the ^10 B uptake | osmotic property of solution [6]: greatly exceeding its iso-osmotic point with blood | toxicity [7]: toxicity observed

stability of the hydrated solution (remains dissolved) ([8]; prolonged standing (i.e., 48 hrs) at room temperature): remains completely dissolved | solubility ([8]; warm water, 60° C.): ~100 mg/mL
Compound: [NH3+][C@@H](Cc1ccc([B-]23OC[C@H]4O[C@@](CO)(O2)[C@@H](O3)[C@@H]4O)cc1)C(=O)O [sodium l-p-boronophenylalanine-d-fructose complex]

binding with l-p-BPA [1]: complete lack of binding | change in the 1H NMR spectrum of l-p-BPA [1]: no change
Compound: OC[C@H]1O[C@@](CO)(O[C@H]2O[C@H](CO)[C@@H](O)[C@H](O)[C@H]2O)[C@@H](O)[C@@H]1O [sucrose]

log Keq (complex formation constant, disaccharides) [1]: 3.1
Compound: Maltulose
difference in binding constants [1]: lack of appreciable difference in binding constants
